Laboratory results: patent US8546382B2, “Methods for enhancing hematopoietic progenitor cell engraftment” (Children's Medical Center Corporation, priority 2009, dated 2013)
Entries after “also recorded” stand apart in the source; their conditions may differ.

What was measured:
[1] = tested on: bone marrow adipocyte formation; conditions: in vitro and in vivo in models of streptozotocin-induced diabetes; cited from earlier work
[2] = tested on: wild-type female FVB mice; test: BM transplantation in lethally irradiated wild-type mice with daily BADGE; assay type: in vivo, mouse
Method: BM transplants were performed in wild-type female FVB mice as described for FIG. 2 except that 30 mg/kg BADGE or control vehicle (DMSO 10%) were administered through daily intra-peritoneal injections from the day prior to irradiation until day 14 post-transplant. 4a. […] 4b. Colony forming unit assay (CFU) from the recovered donor BM.
Finally, it was tested whether pharmacologic antagonism of adipogenesis could enhance bone marrow engraftment in wild-type mice.
Thorax, tibias and tails for homeostasis studies were isolated from wildtype C57BL6/J mice. When BM transplantation was performed, B6.SJL-Ptprca Pep3b/BoyJ were used as donors to take advantage of the CD45.1/CD45.2 allelic system (Jackson Laboratories #0002014). Bone marrow transplantation and CFU-Spleen assays were performed on lethally irradiated mice (two 5.5Gy doses separated by 3 hrs) and cells were administered by tail vein injection within 24 hrs of lethal irradiation. For competitive transplantation, samples were competed against 250,000 recipient-matched competitor femoral bone marrow. FVB wildtype litter-mates mice were used as controls for FVB.A-ZIP/F1 fatless mice. During BM transplantation assays FVB or FVB.A-ZIP/F1 mice (CD45.1) received 200,000 MHC-matched (H^q) wildtype BM from DBA/1J mice (CD45.2). Secondary transplants were performed through recovery of the CD45.2 […] BM passed through the FVB wildtype or FVB.A-ZIP/F1 microenvironment, which was then transplanted into FVB (CD45.1) recipients together with 250,000 FVB (CD45.1) wildtype competitor BM cells. For pharmacological inhibition of adipocyte formation, BM transplants were performed in wild-type female FVB mice as described above, except that 30 mg/kg BADGE or control vehicle (DMSO 10%) were administered in daily intraperitoneal injections starting one day prior to irradiation and continuing until day 14 post-transplant. Solutions were made such that 500 mg BADGE (Fluka) was resuspended in 8.3 ml DMSO (Sigma) and diluted in PBS to a final concentration of 10% DMSO for administration at 30 mg/kg in 100 ul. Aliquots were stored at −20° C. and thawed daily. Multicolor flow cytometry was performed in a special order BD five-laser LSRII flow cytometer. Cell cycle analysis was performed with DAPI (Sigma) in cells fixed in 2% paraformaldehyde for 15 min at 4° C. For all statistical analysis an un-paired two-tailed Student's t-test was performed assuming experimental samples of equal variance. […]
Mice were lethally irradiated with 11-12Gy on a split dose separated by 2.5 h and BM transplants were performed within 24 h by tail-vein injection. Engraftment was measured monthly through eye bleed and FACS analysis with CD45.1-FITC (eBiosciences), CD45.2-PE or CD45.2-biotin, CD3-PE, CD19-PE, Mac-1-PE. […]

Wildtype BM = test: Colony forming unit (CFU) assay of wildtype BM plated with BADGE in vitro; assay type: cell-based, mouse; conditions: BADGE 30 mg/kg vs DMSO vehicle control (0.5 μL/mL); after 8-10 days
Method: 14a. Wildtype BM was plated in the presence of BADGE 30 mg/kg, or DMSO vehicle control (0.5 μL/mL).
Colony forming unit (CFU) assays were performed in complete M3434 methylcellulose (Stem Cell Technologies) following the manufacturer's instructions. Colonies were scored on day 8-10 on coded plates for unbiased counts.

[3] = tested on: whole bone marrow collected from the DBA/1J mouse strain; test: Hematopoietic colony formation in methylcellulose (M3434) in the presence of PPAR gamma inhibitors; assay type: cell-based; conditions: 3 ml M3434 with 1.5 μL of working concentration of each compound; N=2
Method: Progenitor activity was measured by formation of hematopoietic colonies in methylcellulose (M3434) from whole bone marrow collected from the DBA/1J mouse strain. Cells were plated in 3 ml M3434 along with 1.5 μL of the working concentration of each compound.

patients = patients treated with the PPARγ agonist; cited from earlier work

SMILES: CC(C)(c1ccc(OCC2CO2)cc1)c1ccc(OCC2CO2)cc1 (centres unmarked) [BADGE, Bisphenol-A-DiGlycidyl-Ether]
- Bone marrow adipocyte formation [1]: prevent bone marrow adipocyte formation
- White blood cell (WBC) / leukocyte counts in peripheral blood in the post-transplant period ([2]; 30 mg/kg BADGE daily i.p. from day prior to irradiation until day 14 post-transplant, vs vehicle (DMSO 10%)): Higher peripheral blood leukocyte counts; also recorded: accelerated recovery
- Colony forming units (CFU) from the recovered donor BM ([2]; 30 mg/kg BADGE daily i.p., donor CD45.2 BM recovered day 17 post-transplant): enrichment in colony forming units
- BM adipocyte formation by H&E staining of femurs ([2]; BADGE for two weeks following BM transplantation, mice sacrificed day 17 post-transplant): successful inhibition of BM adipocyte formation
- Hematopoietic recovery after BM transplant ([2]; pharmacologic inhibition of adipocyte formation with BADGE): enhances hematopoietic recovery
- Ability to form CFUs (hematopoietic colony formation) in vitro (Wildtype BM): does not enhance hematopoietic colony formation; also recorded: No difference

SMILES: O=C(Nc1ccncc1)c1cc([N+](=O)[O-])ccc1Cl [T0070907, 2-chloro-5-nitro-N-4-pyridinyl-benzamide]
- Number of hematopoietic colonies relative to vehicle control [3]: fewer colonies relative to the vehicle control

SMILES: CN(CCOc1ccc(CC2SC(=O)NC2=O)cc1)c1ccccn1 (centres unmarked) [rosiglitazone]
- Adverse haematological effect in treated patients (patients): myelosuppression
